Active and inactive are the calls of the source. The rule behind the calls is not given here.
How the values were obtained:
Cannabinoid receptor 2 [1] = biological target: T1, Cannabinoid receptor 2 (Homo sapiens, UniProt P34972); test: Agonist activity at human CB2 receptor expressed in CHO-K1 cells assessed as inhibition of NKH-477 induced cAMP production by measuring maximal efficacy incubated for 30 mins by luminescence based analysis relative to control; type: functional, cell-based; conditions: filed as agonist
T1 sequence (P34972 whole entry): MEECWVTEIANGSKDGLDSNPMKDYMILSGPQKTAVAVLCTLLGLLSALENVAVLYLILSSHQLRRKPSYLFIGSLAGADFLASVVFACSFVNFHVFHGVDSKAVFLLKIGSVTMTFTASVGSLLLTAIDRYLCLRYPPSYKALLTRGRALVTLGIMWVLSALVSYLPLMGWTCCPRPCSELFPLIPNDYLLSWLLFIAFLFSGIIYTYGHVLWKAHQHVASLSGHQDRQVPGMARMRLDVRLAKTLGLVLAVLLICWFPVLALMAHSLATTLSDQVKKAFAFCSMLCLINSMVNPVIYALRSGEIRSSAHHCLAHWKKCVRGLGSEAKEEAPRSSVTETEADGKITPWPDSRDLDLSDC

Cannabinoid receptor 2 [2] = biological target: T1, Cannabinoid receptor 2; test: Displacement of [3H]-CP55940 from human CB2 receptor expressed in HEK293 cell membrane assessed as inhibition constant incubated for 90 mins by radioligand competition binding assay; type: cell membranes
Cannabinoid receptor 1 [3] = biological target: T2, Cannabinoid receptor 1 (Homo sapiens, UniProt P21554); test: Displacement of [3H]-CP55940 from human CB1 receptor expressed in HEK293 cell membrane at 1 uM incubated for 60 mins by radioligand competition binding assay relative to control; type: cell membranes
T2 sequence (P21554 whole entry): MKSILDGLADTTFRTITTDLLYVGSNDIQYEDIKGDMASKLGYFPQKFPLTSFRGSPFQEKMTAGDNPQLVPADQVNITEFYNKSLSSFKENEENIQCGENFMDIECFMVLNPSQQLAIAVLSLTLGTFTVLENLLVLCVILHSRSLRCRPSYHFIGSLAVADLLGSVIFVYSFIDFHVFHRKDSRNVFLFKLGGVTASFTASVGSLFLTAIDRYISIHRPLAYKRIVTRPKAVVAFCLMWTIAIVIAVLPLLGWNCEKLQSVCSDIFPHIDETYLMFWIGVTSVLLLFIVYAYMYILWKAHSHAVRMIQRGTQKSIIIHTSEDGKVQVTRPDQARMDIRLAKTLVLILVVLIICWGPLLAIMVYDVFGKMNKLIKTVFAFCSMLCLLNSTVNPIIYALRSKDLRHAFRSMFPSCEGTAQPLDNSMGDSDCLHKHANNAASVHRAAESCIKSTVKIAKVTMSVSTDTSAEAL

Cannabinoid receptor 2 [4] = biological target: T1, Cannabinoid receptor 2; test: Agonist activity at human CB2 receptor expressed in CHO-K1 cells assessed as inhibition of NKH-477 induced cAMP production incubated for 30 mins by luminescence based analysis; type: functional, cell-based
Cannabinoid receptor 2 [5] = biological target: T1, Cannabinoid receptor 2; test: Displacement of [3H]-CP55940 from human CB2 receptor expressed in HEK293 cell membrane at 1 uM incubated for 90 mins by radioligand competition binding assay relative to control; type: cell membranes
THP-1 [6] = test: Antiinflammatory activity in PMA-differentiated human THP-1 macrophages assessed as decrease in TNF-alpha production at 1 to 10 uM incubated for 24 hrs by ELISA coupled qRT-PCR analysis; type: functional, cell-based; conditions: dose 1-10 µM
THP-1 [7] = test: Antiinflammatory activity in PMA-differentiated human THP-1 macrophages assessed as decrease in IL-1beta production at 1 to 10 uM incubated for 24 hrs by ELISA coupled qRT-PCR analysis; type: functional, cell-based; conditions: dose 1-10 µM
THP-1 [8] = test: Antiinflammatory activity in PMA-differentiated human THP-1 macrophages assessed as increase in IL-4 production at 1 to 10 uM incubated for 24 hrs by ELISA coupled qRT-PCR analysis; type: functional, cell-based; conditions: dose 1-10 µM
THP-1 [9] = test: Antiinflammatory activity against LPS-activated PMA-differentiated human THP-1 macrophages assessed as decrease in IFN-gamma production at 1 to 10 uM incubated for 24 hrs by ELISA coupled qRT-PCR analysis; type: functional, cell-based; conditions: dose 1-10 µM
THP-1 [10] = test: Antiinflammatory activity in human THP-1 monocytes assessed as decrease in IFN-gamma production at 1 to 10 uM incubated for 24 hrs by ELISA coupled qRT-PCR analysis; type: functional, cell-based; conditions: dose 1-10 µM
THP-1 [11] = test: Antiinflammatory activity in human THP-1 monocytes assessed as decrease in TNF-alpha production at 1 to 10 uM incubated for 24 hrs by ELISA coupled qRT-PCR analysis; type: functional, cell-based; conditions: dose 1-10 µM
THP-1 [12] = test: Antiinflammatory activity against LPS-activated PMA-differentiated human THP-1 macrophages assessed as decrease in IL-1beta production at 1 to 10 uM incubated for 24 hrs by ELISA coupled qRT-PCR analysis; type: functional, cell-based; conditions: dose 1-10 µM
THP-1 [13] = test: Antiinflammatory activity against LPS-activated PMA-differentiated human THP-1 macrophages assessed as increase in IL-4 production at 10 uM incubated for 24 hrs by ELISA coupled qRT-PCR analysis; type: functional, cell-based
THP-1 [14] = test: Antiinflammatory activity in human THP-1 monocytes assessed as decrease in IL-1beta production at 1 to 10 uM incubated for 24 hrs by ELISA coupled qRT-PCR analysis; type: functional, cell-based; conditions: dose 1-10 µM
THP-1 [15] = test: Antiinflammatory activity in PMA-differentiated human THP-1 macrophages assessed as increase in IL-10 production at 1 to 10 uM incubated for 24 hrs by ELISA coupled qRT-PCR analysis; type: functional, cell-based; conditions: dose 1-10 µM
THP-1 [16] = test: Antiinflammatory activity against LPS-activated human THP-1 monocytes assessed as decrease in IL-6 production at 1 to 10 uM incubated for 24 hrs by ELISA coupled qRT-PCR analysis; type: functional, cell-based; conditions: dose 1-10 µM
THP-1 [17] = test: Antiinflammatory activity against LPS-activated human THP-1 monocytes assessed as decrease in IL-1beta production at 1 to 10 uM incubated for 24 hrs by ELISA coupled qRT-PCR analysis; type: functional, cell-based; conditions: dose 1-10 µM
THP-1 [18] = test: Antiinflammatory activity against LPS-activated PMA-differentiated human THP-1 macrophages assessed as decrease in IL-6 production at 1 to 10 uM incubated for 24 hrs by ELISA coupled qRT-PCR analysis; type: functional, cell-based; conditions: dose 1-10 µM
THP-1 [19] = test: Antiinflammatory activity in human THP-1 monocytes assessed as increase in IL-4 production at 1 to 10 uM incubated for 24 hrs by ELISA coupled qRT-PCR analysis; type: functional, cell-based; conditions: dose 1-10 µM
THP-1 [20] = test: Antiinflammatory activity against LPS-activated PMA-differentiated human THP-1 macrophages assessed as increase in IL-10 production at 10 uM incubated for 24 hrs by ELISA coupled qRT-PCR analysis; type: functional, cell-based
THP-1 [21] = test: Antiinflammatory activity in human THP-1 monocytes assessed as increase in IL-10 production at 1 to 10 uM incubated for 24 hrs by ELISA coupled qRT-PCR analysis; type: functional, cell-based; conditions: dose 1-10 µM
THP-1 [22] = test: Antiinflammatory activity against LPS-activated human THP-1 monocytes assessed as increase in IL-10 production at 1 to 10 uM incubated for 24 hrs by ELISA coupled qRT-PCR analysis; type: functional, cell-based; conditions: dose 1-10 µM
THP-1 [23] = test: Antiinflammatory activity against LPS-activated human THP-1 monocytes assessed as increase in IL-4 production at 1 to 10 uM incubated for 24 hrs by ELISA coupled qRT-PCR analysis; type: functional, cell-based; conditions: dose 1-10 µM
THP-1 [24] = test: Antiinflammatory activity against LPS-activated human THP-1 monocytes assessed as decrease in IFN-gamma production at 1 to 10 uM incubated for 24 hrs by ELISA coupled qRT-PCR analysis; type: functional, cell-based; conditions: dose 1-10 µM
THP-1 [25] = test: Antiinflammatory activity in human THP-1 monocytes assessed as decrease in IL-6 production at 1 to 10 uM incubated for 24 hrs by ELISA coupled qRT-PCR analysis; type: functional, cell-based; conditions: dose 1-10 µM
THP-1 [26] = test: Antiinflammatory activity in PMA-differentiated human THP-1 macrophages assessed as decrease in IFN-gamma production at 1 to 10 uM incubated for 24 hrs by ELISA coupled qRT-PCR analysis; type: functional, cell-based; conditions: dose 1-10 µM
THP-1 [27] = test: Antiinflammatory activity against LPS-activated human THP-1 monocytes assessed as decrease in TNF-alpha production at 1 to 10 uM incubated for 24 hrs by ELISA coupled qRT-PCR analysis; type: functional, cell-based; conditions: dose 1-10 µM
THP-1 [28] = test: Antiinflammatory activity in PMA-differentiated human THP-1 macrophages assessed as decrease in IL-6 production at 1 to 10 uM incubated for 24 hrs by ELISA coupled qRT-PCR analysis; type: functional, cell-based; conditions: dose 1-10 µM
Cannabinoid receptor 2 [29] = biological target: T1, Cannabinoid receptor 2; test: Antagonist activity at human CB2 receptor expressed in CHO-K1 cells assessed as reversal of JWH-133 mediated cAMP reduction preincubated with compound for 15 mins followed by JWH-133 addition and measured after 30 mins in the presence of NKH-477 by luminescence based analysis; type: functional, cell-based; conditions: filed as antagonist, time 45.0 min
THP-1 [30] = test: Antiinflammatory activity against LPS-activated PMA-differentiated human THP-1 macrophages assessed as decrease in TNF-alpha production at 1 to 10 uM incubated for 24 hrs by ELISA coupled qRT-PCR analysis; type: functional, cell-based; conditions: dose 1-10 µM
Cannabinoid receptor 1 [31] = biological target: T2, Cannabinoid receptor 1; test: Displacement of [3H]-CP55940 from human CB1 receptor expressed in HEK293 cell membrane assessed as inhibition constant incubated for 60 mins by radioligand competition binding assay; type: cell membranes

CCCCCCCNc1ccc(-c2cccs2)cc1C(=O)NC12CC3CC(CC(C3)C1)C2
Emax (Cannabinoid receptor 2 [1]): 75%
Ki (Cannabinoid receptor 2 [2]): 160 nM
Activity (Cannabinoid receptor 1 [3]): 7%
EC50 (Cannabinoid receptor 2 [4]): 5600 nM

CCCCCCNc1ccc(-c2cccnc2)cc1C(=O)NC12CC3CC(CC(C3)C1)C2
Ki (Cannabinoid receptor 2 [2]): 6500 nM
Activity (Cannabinoid receptor 1 [3]): 9%

CCCC(C)(C)c1ccc2c(c1)OC(C)(C)[C@@H]1CC=C(C)C[C@@H]21
EC50 (Cannabinoid receptor 2 [4]): 169000 nM

CCCCCNc1ccc(-c2cccs2)cc1C(=O)NC12CC3CC(CC(C3)C1)C2
Ki (Cannabinoid receptor 2 [2]): 2600 nM
Activity (Cannabinoid receptor 1 [3]): 15%

CCCCCCCNc1ccc(-c2cccnc2)cc1C(=O)NC12CC3CC(CC(C3)C1)C2
Activity (Cannabinoid receptor 2 [5]): 31%
Activity (Cannabinoid receptor 1 [3]): 16%

CCCCCNc1ccc(-c2cccnc2)cc1C(=O)NC12CC3CC(CC(C3)C1)C2
Emax (Cannabinoid receptor 2 [1]): 98.1%
Ki (Cannabinoid receptor 2 [2]): 330 nM
Activity (Cannabinoid receptor 1 [3]): 1%
EC50 (Cannabinoid receptor 2 [4]): 10400 nM

CCCCCNc1ccc(-c2ccccc2)cc1C(=O)NC1CCCCC1
Activity (Cannabinoid receptor 2 [5]): 21%
Activity (Cannabinoid receptor 1 [3]): 3%

CCCCCNc1ccc(-c2ccc(OC)cc2)cc1C(=O)NC12CC3CC(CC(C3)C1)C2
Ki (Cannabinoid receptor 2 [2]): 148 nM
Activity (Cannabinoid receptor 1 [3]): 23%

CCCCCNc1ccc(-c2cccc(C)c2)cc1C(=O)NC12CC3CC(CC(C3)C1)C2
Activity (Cannabinoid receptor 2 [5]): 37%
Activity (Cannabinoid receptor 1 [3]): 14%

CCCCCNc1ccc(-c2ccc(C(=O)OC)cc2)cc1C(=O)NC12CC3CC(CC(C3)C1)C2
Activity (Cannabinoid receptor 2 [5]): 12%
Activity (Cannabinoid receptor 1 [3]): 6%

CCCCCNc1ccc(-c2cccc(C(N)=O)c2)cc1C(=O)NC12CC3CC(CC(C3)C1)C2
Activity (Cannabinoid receptor 2 [5]): 21%
Activity (Cannabinoid receptor 1 [3]): 3%

CCCCCCNc1ccccc1C(=O)NC12CC3CC(CC(C3)C1)C2
Ki (Cannabinoid receptor 2 [2]): 485 nM
Activity (Cannabinoid receptor 1 [3]): 6%

CCCCCNc1ccc(-c2cccc(F)c2)cc1C(=O)NC12CC3CC(CC(C3)C1)C2
Emax (Cannabinoid receptor 2 [1]): 86.6%
Ki (Cannabinoid receptor 2 [2]): 71 nM
Activity (Cannabinoid receptor 1 [3]; filed as agonist): 42%
EC50 (Cannabinoid receptor 2 [4]): 5250 nM

COc1ccc2c(c1)c(CCN1CCOCC1)c(C)n2C(=O)c1cccc(Cl)c1Cl
Ki (Cannabinoid receptor 2 [2]): 6.9 nM

Cc1c(C(=O)NC23CC4CC(CC(C4)C2)C3)nn(CCCCCO)c1-c1ccccc1
Ki (Cannabinoid receptor 2 [2]; hek293): 0.08 nM

CCCCCNc1ccc(-c2ccc(C(N)=O)cc2)cc1C(=O)NC12CC3CC(CC(C3)C1)C2
Activity (Cannabinoid receptor 2 [5]): 19%
Activity (Cannabinoid receptor 1 [3]): 14%

CCCCCCNc1ccc(-c2ccccc2)cc1C(=O)NC12CC3CC(CC(C3)C1)C2
Ki (Cannabinoid receptor 2 [2]): 209 nM
Activity (Cannabinoid receptor 1 [3]): 35%

CCCCCNc1ccc(-c2cccc(OC)c2)cc1C(=O)NC12CC3CC(CC(C3)C1)C2
Activity (Cannabinoid receptor 2 [5]): 25%
Activity (Cannabinoid receptor 1 [3]): 28%

CCCCCCNc1ccc(Br)cc1C(=O)NC12CC3CC(CC(C3)C1)C2
Activity (Cannabinoid receptor 2 [5]): 26%
Activity (Cannabinoid receptor 1 [3]): 17%

CCCCCNc1ccc(-c2ccccc2)cc1C(=O)NC12CC3CC(CC(C3)C1)C2
Activity (THP-1 [6]): inactive
Activity (THP-1 [7]): inactive
Activity (THP-1 [8]): inactive
Activity (THP-1 [9]): inactive
Activity (THP-1 [10]): inactive
Activity (THP-1 [11]): inactive
Activity (THP-1 [12]): inactive
Activity (THP-1 [13]): inactive
Activity (THP-1 [14]): inactive
Activity (THP-1 [15]): inactive
Activity (THP-1 [16]): inactive
Activity (THP-1 [17]): inactive
Activity (THP-1 [18]): inactive
Activity (THP-1 [19]): inactive
Activity (THP-1 [20]): inactive
Activity (THP-1 [21]): inactive
Activity (THP-1 [22]): inactive
Activity (THP-1 [23]): inactive
Activity (THP-1 [24]): inactive
Activity (THP-1 [25]): inactive
Activity (THP-1 [26]): inactive
Activity (THP-1 [27]): inactive
Activity (THP-1 [28]): inactive
Activity (Cannabinoid receptor 2 [29]): Active
Activity (THP-1 [30]): inactive
Ki (Cannabinoid receptor 2 [2]): 47.8 nM
Activity (Cannabinoid receptor 1 [3]): 5%

CCCCCCNc1ccc(-c2cccs2)cc1C(=O)NC12CC3CC(CC(C3)C1)C2
Ki (Cannabinoid receptor 2 [2]): 465 nM
Activity (Cannabinoid receptor 1 [3]): 32%

CCCCCCCNc1ccccc1C(=O)NC12CC3CC(CC(C3)C1)C2
Ki (Cannabinoid receptor 2 [2]): 923 nM
Activity (Cannabinoid receptor 1 [3]): 4%

CCCCCCCNc1ccc(Br)cc1C(=O)NC12CC3CC(CC(C3)C1)C2
Activity (Cannabinoid receptor 2 [5]): 16%
Activity (Cannabinoid receptor 1 [3]): 8%

CCCCCNc1ccc(-c2ccc(C)cc2)cc1C(=O)NC12CC3CC(CC(C3)C1)C2
Ki (Cannabinoid receptor 2 [2]): 129 nM
Activity (Cannabinoid receptor 1 [3]): 16%

CCCCCNc1ccc(-c2ccc(F)cc2)cc1C(=O)NC12CC3CC(CC(C3)C1)C2
Ki (Cannabinoid receptor 1 [31]): 754 nM
Ki (Cannabinoid receptor 2 [2]): 89.5 nM

CCCCCCCNc1ccc(-c2ccccc2)cc1C(=O)NC12CC3CC(CC(C3)C1)C2
Ki (Cannabinoid receptor 2 [2]): 1180 nM
Activity (Cannabinoid receptor 1 [3]): 22%

CCCCCNc1ccc(Br)cc1C(=O)NC12CC3CC(CC(C3)C1)C2
Ki (Cannabinoid receptor 2 [2]): 456 nM
Activity (Cannabinoid receptor 1 [3]): 5%

From ChEMBL document CHEMBL5321210, “N-adamantyl-anthranil amide derivatives: New selective ligands for the cannabinoid receptor subtype 2 (CB2R)” (Eur J Med Chem, 2023)
